In patent US20040151698A1, “Microbial pesticide active against plant fungal pathogens and process for preparation thereof” (priority 2000, published 2004):
Several values for one entry are separate records, joined by “and”; a condition that tells them apart may be missing. Identical values can stand only once.

Columns and labels:
C. fulvum = test: Greenhouse test against leaf mold in tomato; type: in vivo, Cladosporium fulvum; conditions: sprayed at a usual concentration; for Morbidity (%) Avg.: average of 3 repeats
Procedure: (§1) Greenhouse and field tests of the fungicidal activity of the antagonistic microbe against various pathogenic fungi are conduced. For this, tomatoes are cultivated both in a greenhouse and a field. The tomatoes cultivated in a greenhouse and a field are treated with the spore suspension of the novel antagonistic microbe of the present invention and then exposed to pathogenic fungi, B. cinerea causing gray mold rot, C. fulvum causing leaf mold, and A. solani causing early blight, separately. The experiment is performed according to a randomized block design with three repeat measures. For comparison, procymidone for use in the control of gray mold rot, propineb for use in the control of leaf mold, and azoxystrobin for use in the control of early blight are employed. Morbidity is determined by examining the infection of all tomatoes one by one or by a sampling method. A significance test is carried out according to Duncan's multiple range test (DMRT).
To determine the fungicidal activity of the antagonistic microbe of the present invention against C. fulvum causing leaf mold, tomato plants were cultivated in the same manner as in Experimental Example 4-1 in a greenhouse with a dimension of 23.7 m in length, 7.0 m in width and 2.3 m in height. The experiment was performed in triplicate in a randomized block design. For comparison, propineb was sprayed as a control at a usual concentration. Morbidity was determined by examining the infection of 20 stalks of tomatoes per repeat measure and attack frequency was calculated according to the following equation: [formula]
wherein the factor is set to be: 0 when no leaves are infected; 1 when one forth of the total leaves are infected; 2 when half of the total leaves are infected and some of them are withered; 3 when three fourths of the total leaves are infected and half of them are withered; and 4 when two thirds are withered to death.

A. solani = test: Field test against early blight in potato; type: in vivo, Alternaria solani; conditions: sprayed at a usual concentration; for Morbidity (%) Avg.: average of 3 repeats
Procedure: as §1
To determine the fungicidal activity of the antagonistic microbe of the present invention against A. solani causing early blight, tomato was cultivated in a field. The cultivation was performed in the following schedule;
June 10 1st Treatment with the antagonistic microbe (spray amount 300 L/10 a)
July 5 2nd Treatment with the antagonistic microbe (spray amount 300 L/10 a)
July 13 Measuring mobidity
The experiment was performed in a randomized block design with three repeat measures. For comparison, azoxystrobin was sprayed as a control at a usual concentration. Morbidity was determined by examining the infection of 20 stocks of potatoes per repeat measure and attack frequency was calculated as in Experimental Example 4-2.

B. cinerea = test: Greenhouse test against tomato gray mold rot; type: in vivo, Botrytis cinerea; conditions: sprayed at a usual concentration
Procedure: as §1
To determine the fungicidal activity of the antagonistic microbe of the present invention against B. cinerea causing gray mold rot, tomato plants were cultivated in a greenhouse with a dimension of 23.7 m in length, 7.0 m in width and 2.3 m in height. The cultivation was performed according to the following schedule;
February 11 1st Treatment with the antagonistic microbe (spray amount 300 L/10 a)
February 20 2nd Treatment with the antagonistic microbe (spray amount 300 L/10 a)
March 2 3rd Treatment with the antagonistic microbe (spray amount 330 L/10 a)
March 22 Measuring mobidity
The tomato plants treated with the antagonistic microbe occupied an area of 5.4 m2 and the experiment was performed in triplicate in a randomized block design. For comparison, Procymidone was sprayed as a control at a usual concentration. The spore suspension of the antagonistic microbe prepared in Example 2 was added directly to water to bring about 500- and 1,000-fold dilutions of the population. Morbidity was determined by examining the infection of all tomato plants one by one. A significance test was performed according to Duncan's multiple range test (DMRT).

propineb
Control value(%) (C. fulvum): 42.9%
Morbidity (%) Avg. (C. fulvum): 12.0 B %
Morbidity (%) Avg. (C. fulvum; listed as propineb): 21.9%
Morbidity (%) 1 (C. fulvum; repeat 1): 10.3%
Morbidity (%) 2 (C. fulvum; repeat 2): 11.2%
Morbidity (%) 3 (C. fulvum; repeat 3): 14.5%

CO/C=C(/C(=O)OC)c1ccccc1Oc1cc(Oc2ccccc2C#N)ncn1 [Azoxytrobin, azoxystrobin]
Control value(%) (A. solani): 57.6%
Morbidity (%) Avg. (A. solani): 9.2 A %
Morbidity (%) Avg. (A. solani; listed as azoxystrobin): 9.2%
Morbidity (%) 1 (A. solani; repeat 1): 9.3%
Morbidity (%) 2 (A. solani; repeat 2): 10.2%
Morbidity (%) 3 (A. solani; repeat 3): 8.2%

CC12CC1(C)C(=O)N(c1cc(Cl)cc(Cl)c1)C2=O (centres unmarked) [Procymidone]
Control value(%) (B. cinerea): 40.2%
Morbidity (%) Avg. (B. cinerea; average of 3 repeats): 10.4% and 10.4 B %
Morbidity (%) 1 (B. cinerea; repeat 1): 12.3%
Morbidity (%) 2 (B. cinerea; repeat 2): 10.6%
Morbidity (%) 3 (B. cinerea; repeat 3): 8.2%
